Reference: US5358945A, “Pyrimidine compound and pharmaceutically acceptable salts thereof” (Mitsui Petrochemical Industries, Ltd., priority 1990, dated 1994)

Tests used:
Mouse neuro 2a cells = assay: Neurite outgrowth of mouse neuroblastoma neuro 2a cells (Table 7); assay type: cell-based; conditions: mean ± S.D.
Description: The biological activities in vitro of the compounds of formula (I) on cells of the nervous system were tested. The cells tested were mouse neuroblastoma cell line neuro-2a (Dainippon Pharmaceutical Co., Ltd.) which have been established as the cells of the nervous system. The above nerve cells were grown in an incubator at 37° C. in the presence of 5% carbon dioxide gas exponentially, and the cultured for a certain period of time together with the compounds of formula (I).
The effects of the compounds of this invention on neuroblastoma cells were examined by the following method.
Mouse neuro 2a cells in the logarithmic growth period in the Dulbecco's modified Eagle's medium [DMEM, containing 100 units/ml of penicillin G sodium and 100 micrograms/ml of streptomycin sulfate] containing 10% of FCS were seeded in a 48-well plate so that the number of cells was 1,000 cells/well, and cultured for one day in 0.25 ml of the culture fluid in each well in an incubator containing 5% of carbon dioxide gas in air at 37° C. The medium was replaced by a medium containing each antibiotics and FCS and the cells were further cultured for 24 hours. Then, a 4% aqueous glutaraldehyde solution in the same amount as a medium (0.25 ml) was added, and the culture was left to stand at room temperature for 2 hours to fix the cells. After washing with water, a 0.05% aqueous solution of methylene blue was added to stain the cells. Under a microscope, the number of cells containing outgrown neurites (cells having at least one neurite with a length of at least two times as large as the long diameter of the cell) was counted visually, and the proportion of these cells in the entire cells was calculated. The well was observed over 5 or more visual fields (at least 2% of the entire surface area of the well) continuous to the left and right from a mark put at the center of the well, and more than 200 cells was counted. One drug compound was used in 6 different concentrations at most, and three runs were conducted for each concentration.

[1] = tested on: Mouse neuroblastoma cells NS-20Y; assay: Neurite appearance in mouse neuroblastoma NS-20Y cells (Table 8); assay type: cell-based;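 also: cells grown in polyornithine-coated dishes, with timing counted from the start of culture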
mouse = assay: Acute toxicity in mouse (Table 10); assay type: in vivo
Description: The acute toxicity of the compounds of the invention was examined by the following method.
Male ddy-strain 5-week old mice, 4-6 per group, were used as experimental animals. Each of the compounds was dissolved or suspended in saline and administered perorally (p.o.) or intraperitoneally (i.p.), and the toxicity of the compound was assessed 24 hours after the administration.

[2] = i.p., 24 hours after administration

SMILES	Ratio of the number of cells having neurites with a length of at least two times as large as the diameter of cells to the total number of cells (Mouse neuro 2a cells; 0.03 mM) [%]	Ratio of the number of cells having neurites with a length of at least two times as large as the diameter of cells to the total number of cells (Mouse neuro 2a cells; 0.1 mM) [%]	Ratio of the number of cells having neurites with a length of at least two times as large as the diameter of cells to the total number of cells (Mouse neuro 2a cells; 0.3 mM) [%]	Ratio of the number of cells having neurites with a length of at least two times as large as the diameter of cells to the total number of cells (Mouse neuro 2a cells; 1 mM) [%]	The number of cells in which neurites appeared/Total number of cells ([1]; 24 hour, 0.2 mM)	The number of cells in which neurites appeared/Total number of cells ([1]; 48 hour, 0.1 mM)	Estimated LD50 (mouse; in vivo, ip) [mg/kg]	The number of cells in which neurites appeared/Total number of cells ([1]; 48 hour, 0.5 mM)	Ratio of the number of cells having neurites with a length of at least two times as large as the diameter of cells to the total number of cells (Mouse neuro 2a cells; 0.01 mM) [%]	The number of cells in which neurites appeared/Total number of cells ([1]; 48 hour, 0.2 mM)	The number of cells in which neurites appeared/Total number of cells ([1]; 24 hour, 0.5 mM)	Estimated LD50 (mouse; [2]) [mg/kg]	The number of cells in which neurites appeared/Total number of cells ([1]; 24 hour, 0.1 mM)
CN(C(=O)C12CC3CC(CC(C3)C1)C2)c1ccnc(N2CCC(c3ccccc3)CC2)n1 [Compound 160]	5.1 ± 1.2	11.4 ± 1.3	23.5 ± 2.9	20.7 ± 2.7	2/50	3/50	500 to 1000						
CN(C(=O)c1ccc2c(c1)C(=O)OC2=O)c1ccnc(N2CCC(c3ccccc3)CC2)n1 [Compound 168]			8.7 ± 2.0	14.6 ± 3.7	3/50		> 1000	3/50					
CC(=O)c1ccc(C(=O)N(C)c2ccnc(N3CCC(c4ccccc4)CC3)n2)cc1 [Compound 176]	11.5 ± 2.1		13.6 ± 0.9	14.8 ± 2.9	4/50		> 1000		18.4 ± 2.0	4/50			
COC(=O)c1ccc(C(=O)N(C)c2ccnc(N3CCCCC3)n2)cc1 [Compound 192]		8.0 ± 1.3	13.8 ± 2.8		5/50		500 to 1000	11/50		7/50	5/50		
CN(C(=O)c1ccc(C=O)cc1)c1ccnc(N2CCCCC2)n1 [Compound 200]		5.8 ± 1.3	19.7 ± 3.1		8/50			18/50		11/50	16/50	> 1000	
CC(=O)c1ccc(C(=O)N(C)c2ccnc(N3CCCCC3)n2)cc1 [Compound 208]			7.9 ± 0.6	12.7 ± 3.0	2/50		> 1000	5/50		6/50	3/50		
CC(=O)N(C)c1ccnc(N2CCSCC2)n1 [Compound 216]			4.4 ± 1.3	15.8 ± 3.2	3/50		500 to 1000	4/50			3/50		
O=C1CCCN1c1ccnc(N2CCCCC2)n1 [Compound 273]		7.7 ± 2.0	24.0 ± 3.2	10.3 ± 4.0	15/50	8/50		22/50	5.3 ± 0.8	16/50	18/50	> 500	10/50
CC1CCN(c2nccc(N3CCCC3=O)n2)CC1 [Compound 304]	3.7 ± 1.2	6.8 ± 1.0	17.7 ± 2.9	16.3 ± 4.5	12/50	7/50	250 to 500	17/50		14/50	16/50		8/50
CCC1CCN(c2nccc(N3CCCC3=O)n2)CC1 [Compound 312]	4.1 ± 1.2	12.7 ± 2.8			13/50	8/50		18/50	3.8 ± 0.6	13/50	17/50	> 500	6/50
O=C1CCCN1c1ccnc(N2CCCC2)n1 [Compound 320]		4.2 ± 0.3	11.0 ± 0.8	10.7 ± 4.7				3/50	4.2 ± 1.9		6/50	> 500	5/50
CC1CCCCN1c1nccc(N2CCCC2=O)n1 (stereo not shown) [Compound 328]			5.6 ± 1.7			3/50	250 to 500		3.9 ± 0.9				3/50
